The assay concerns alcohol dehydrogenase (ADHF1). The assay can be described thus: Reduction of ketones with lyophilized recombinant ADHF1 crude extract, GC analysis. The format is biochemical, Pseudomonas fluorescens (DSM 50106). The conditions noted are these: for Conversion: Table 1, GC analysis, 6.4 μmol substrate, 1.25 mg enzyme crude extract, 0.1 M Tris pH 8.0, 20% (v/v) isopropanol, room temperature, time 20-21 h. As to the method:
The activity of lyophilized alcohol dehydrogenase is determined using acetophenone as model substrate. The standardized reaction mixture (250 μl) contains 6.4 μmol of substrate dissolved in isopropanol, 1.25 mg of enzyme (crude extract) in 0.1 M Tris buffer (pH 8.0) and 20% (v/v) isopropanol as substrate for NADH-recycling dehydrogenase. The reactions are carried out at room temperature, unless explicitly stated otherwise. All values were determined three times. After the reaction has finished, the reaction mixture is extracted with twice the amount of chloroform and the organic phase is then dried over sodium sulfate. The reaction products were analyzed isothermally at 120° C. by GC measurements (Shimadzu GC 14A, Tokyo, flame ionization detector, integrator C5RA) using a chiral column (heptakis (2,6-O-methyl-3-O-pentyl)-β-cyclodextrin, 25m×0.25mm ID, Macherey & Nagel, Düren). The retention times are 1.55 min for acetophenone, 2.77 min for (R)-α-phenylethanol and 2.99 min for (S)-α-phenylethanol. The absolute configuration was determined by using commercial standards. Further GC analyses were carried out at a temperature rising from 90° C. to 120° C. at a rate of 5° C./min. Here the retention times were 0.95 min for cyclopentanone, 1.37 min for cyclopentanol, 2.85 min for cycloheptanone, 4.29 min for cycloheptanol, 1.42 min for cyclohexanone and 2.12 min for cyclohexanol.

Marks after values point to notes of the source that are not given here.

With `O=C1CCCCCC1` [Cycloheptanone], the Conversion is recorded as 51%. Take `O=C1CCCCC1` [Cyclohexanone]: the Conversion is 100%. On to `O=C1CCCC1` [Cyclopentanone], for which the Conversion worked out at 53%. Regarding `CC(=O)c1ccccc1` [Substrate 1, acetophenone], the Conversion is 95^b %. Besides, for the setting “conversion of acetophenone by ADHF1”, the “yield of (R)-α-phenylethanol” value is 95%.

(Values after patent US20030171544A1, “Alcohol dehydrogenase and use thereof” (DEGUSSA AG, priority 2001, published 2003).)
